In one data set the test system is XBP-luciferase reporter. Kind of data set: XBP-luciferase reporter assay under Tm or hypoxia, HT1080 cells. Type of data set: cell-based, human. As for the experimental part: HT1080 cells stably expressing the XBP-luciferase construct were grown in 60 mm dishes to 60-70% confluency. Following hypoxia treatment, cells were washed twice with PBS, lysed in 400 μl 1× reporter lysis buffer (RLB) (Promega, Madison Wis.) for 30 min at 24° C. Lysates (100 μl) were mixed with an equal volume of luciferase substrate (Promega), and assayed using a luminometer. For 5×-UPRE-luciferase reporter assays, cells were co-transfected with the appropriate reporter plasmid and a control plasmid (pSV40-beta-gal) using Lipofectamine 2000 (Invitrogen, San Diego, Calif.). Twenty-four hours after transfection, fresh media was added, and cells were treated with Tm or shifted to hypoxia. After treatment, cells were lysed in 1×RLB and analyzed for luciferase activity as described above. Beta-galactosidase activity was determined using the beta-galactosidase enzyme assay system (Promega).
A. XBP-luciferase reporter construct. Firefly luciferase was inserted downstream of the IRE1α splice site in human XBP-1 to enable the conditional translation of luciferase under ER stress in an IRE1α-dependent manner. B. Selective inhibition of the XBP-luciferase reporter by irestatin 9389. HT1080 human fibrosarcoma cells stably expressing the XBP-luciferase reporter or CMV-luciferase were cultured in the presence of Tm (4 μg/ml) and Tg (0.4 μM) and irestatin 9389 at the indicated concentrations. After 24 hours, luciferase activity was analyzed in an automated plate reader. For each cell line, values are expressed as the percent inhibition of the median for Tm/Tg-treated wells, corrected for background. C. Structure of irestatin 9389. D. XBP-luciferase reporter assay. HT1080 cells stably expressing the XBP-luciferase reporter were exposed to Tm (4 μg/ml) for 24 hours or hypoxia (0.1% oxygen) for 24 or 48 hours, in the presence of DMSO or irestatin 9389 (1 μM) as indicated. Values are expressed as the fold increases over uninduced levels. E. 5×-UPRE reporter assay. HT1080 cells were co-transfected with 5×-UPRE luciferase and SV40-beta-gal reporter plasmids, followed by exposure to Tm or hypoxia as in D. For each condition, luciferase activity is normalized to beta-galactosidase expression levels as an internal control for transfection efficiency. F. Western immunoblot analysis of XBP-1s. HT1080 cells were left untreated (lane 2) or exposed to Tm (4 μg/ml) for 20 hours in the presence of DMSO vehicle (lane 1) or the indicated irestatins (2 μM; lanes 3-6). […] Cells were harvested, lysed, and analyzed by immunoblotting with antisera specific for HIF-1α (top), XBP-1s (middle) or actin (bottom). […] Total RNA was analyzed by Northern blotting using radiolabeled probes specific for P58^IPK or DER-1. […]

Data set [1] can be described thus: Blood chemistry, complete blood count and histopathology. It counts as in vivo, mice. As for the experimental part: Complete blood counts (CBC's) and clinical chemistry panels were performed on blood obtained by cardiac puncture after euthanasia with CO2 Gross necropsies were performed, all major viscera were harvested, fixed in 10% buffered neutral formalin, routinely processed for paraffin embedding, and stained with hematoxylin and eosin (H&E). Sections were analyzed by a board-certified veterinary pathologist (DMB). […]

[2] abbreviates: irestatin-treated nude mice, terminal cardiac blood draw, mean.

Consider `Cc1csc(NC(=O)CSc2nc3c(c(C(F)(F)F)c2C#N)CCC3)n1` [Compound 9389], for which, in the data set on XBP-luciferase reporter (1 μM, 48 hours of hypoxia (control 95-fold)), the “hypoxia-induced increase of XBP-luciferase activity” value was “robustly inhibited this response”. Also, in the data set with XBP-luciferase reporter (1 μM, hypoxia (<0.1% oxygen) for 24 or 48 hours), the “activation of the XBP-luciferase reporter under hypoxia” value was “diminished activation”. Moreover, in the data set on XBP-luciferase reporter (Homo sapiens, HT-1080, irestatin 9389 1 μM, Tm 24 hours, read-out: inhibition of Tm-mediated activation of the XBP-luciferase reporter), the inhibition at 1 µM was > 90%. Moreover, in data set [1] (3-4 doses of 50 mg/kg every other day), the “tolerability (kidney, liver, bone marrow function)” value is “well tolerated”. Further, the “fasting blood glucose levels versus vehicle” value in data set [1] (irestatin- and vehicle-treated animals) is reported as “no significant difference in fasting blood glucose levels”. In data set [1] (setting [2]), the ALT is on record as 29.4 IU/L, the AST came out at 117.775 IU/L, the “Anion Gap” value amounted to 17.975 mM and the “Carbon Dioxide” value was 25.075 mM. In addition, in data set [1] (setting [2]), the Chloride is listed as 116.75 mM, the Cholesterol is 102 mg/dL, the Glucose is listed as 124.5 mg/dL and the HCT came to 47%. Moreover, in data set [1] (setting [2]), the HGB turned out to be 14.625 gm/dL, the Na/K Ratio turned out to be 20.3, the Platelets was 805.5 K/uL and the Potassium is 7.5175 mM. In addition, in data set [1] (setting [2]), the RBC is 10.375 M/uL, the Sodium was determined as 152.25 mM, the “Total Bilirubin” value was 0.3 mg/dL and the WBC was 5.19 K/uL. Also, the “histopathological analysis of all major organs” value in data set [1] (three doses, 50 mg/kg) is “no significant differences between the vehicle and irestatin treatment groups”.
